Experimental data reported in patent US20230270825A1, “STAPLED OLEFIN CO-AGONISTS OF THE GLUCAGON AND GLP-1 RECEPTORS” (Merck Sharp & Dohme LLC, priority 2019, published 2023).
Numbered stars: 1 amine (or outer) side, 2 acyl side, 3 side chain; on linkers, the order of the positions; unused ones are H or OH. Bridge positions count the residues as written; N and C are the ends. Square brackets hold non-standard residues; d marks the D form. Peptide text beside a SMILES is read from it. Nle(6-ylidene) = O=C([C@H](CCCC=[*:3])N[*:1])[*:2]; Aib = CC(C)(N)C(=O)O

Assays:
human GCGR = target: T1, human GCGR (Homo sapiens, UniProt P47871); assay: cAMP activity assay, cells expressing human GCGR (HitHunter cAMP XS); assay type: cell-based; details: ratio of human GCGR EC50 to human GLP1R EC50
T1 construct: expressed in transfected cells; assay-ready frozen cells grown with Blasticidin and Hygromycin
Description: (§1) Activity of the peptides at the Glucagon receptor (GCGR) and GLP-1 receptor (GLP1R) was measured in a cAMP activity assay.
(§2) Peptides were dissolved in 100% DMSO and serially diluted to generate 10 point titrations. The peptide solutions were then transferred into 384-well assay plates (150 nL/well).
(§3) Assay ready frozen cells expressing human GLP1R or human GCGR were suspended in growth media consisting of DMEM medium (GIBCO), 10% FBS (GIBCO), 1x NEAA(GIBCO), 1x P/S (GIBCO), 10ug/ml Blasticidin (GIBCO) and 200 µg/mL Hygromycin (GIBCO). Cells were then diluted in assay buffer consisting of PBS (GIBCO), 7.5% BSA (Perkin Elmer), 100 µM RO 20-1724 (Sigma), with or without 20% human serum (MP Biomedical). The cell suspensions (15 µL) were then added to the assay plates containing the peptide solutions (30,000 cells/well for human GCGR; 10.000 cells/well for human GLP1R). The cells were incubated for 1 hour at room temperature in the dark. Production of cAMP was determined using HitHunter™ cAMPXS kits (DiscoverX) following manufacturer protocol. The plates were incubated for overnight at room temperature in the dark. Luminescence was measured using an EnVision Multilabel plate reader (Perkin Elmer). Native GLP-1 and Glucagon (Bachem) are used as control peptides. EC50 values were calculated using uses a 4 parameter logistic fit based on the Levenberg-Marquardt algorithm.

human GLP1R = target: T2, human GLP1R (Homo sapiens, UniProt P43220); assay: cAMP activity assay, cells expressing human GLP1R (HitHunter cAMP XS); assay type: cell-based; details: cAMP production, 1 hour at room temperature; assay buffer with or without 20% human serum (not stated which)
T2 construct: expressed in transfected cells; assay-ready frozen cells grown with Blasticidin and Hygromycin
Description: as §1, §2, §3

T1 sequence (P47871 26-477): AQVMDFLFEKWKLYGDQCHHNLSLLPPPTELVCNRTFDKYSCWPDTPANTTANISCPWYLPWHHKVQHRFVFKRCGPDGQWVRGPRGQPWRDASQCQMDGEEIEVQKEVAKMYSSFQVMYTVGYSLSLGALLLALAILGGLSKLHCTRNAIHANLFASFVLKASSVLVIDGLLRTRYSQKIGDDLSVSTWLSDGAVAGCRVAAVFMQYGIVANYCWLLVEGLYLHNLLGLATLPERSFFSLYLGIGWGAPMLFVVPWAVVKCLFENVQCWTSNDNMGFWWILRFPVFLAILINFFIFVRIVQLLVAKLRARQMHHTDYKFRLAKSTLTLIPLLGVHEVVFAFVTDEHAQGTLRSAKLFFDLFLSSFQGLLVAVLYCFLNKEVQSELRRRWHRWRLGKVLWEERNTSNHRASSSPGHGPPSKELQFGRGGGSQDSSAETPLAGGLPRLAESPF
T2 sequence (P43220 24-463): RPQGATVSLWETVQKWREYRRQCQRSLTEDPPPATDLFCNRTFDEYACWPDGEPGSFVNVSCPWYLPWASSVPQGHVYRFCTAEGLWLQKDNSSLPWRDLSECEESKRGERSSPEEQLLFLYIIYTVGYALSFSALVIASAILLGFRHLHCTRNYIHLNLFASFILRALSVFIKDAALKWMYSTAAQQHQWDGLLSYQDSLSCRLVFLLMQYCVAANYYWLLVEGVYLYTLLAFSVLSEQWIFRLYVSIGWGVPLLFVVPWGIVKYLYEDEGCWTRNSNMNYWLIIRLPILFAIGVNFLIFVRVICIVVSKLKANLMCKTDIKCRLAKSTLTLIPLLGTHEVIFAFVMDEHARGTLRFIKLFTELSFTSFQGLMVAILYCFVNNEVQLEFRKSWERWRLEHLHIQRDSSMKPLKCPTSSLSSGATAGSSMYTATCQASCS

hGCGR/hGLP1R (hTone) (human GCGR): 33.1
EC50 (human GLP1R): 130 pM
Structure (SMILES): CC(C)C[C@@H]1NC(=O)[C@H](Cc2c[nH]c3ccccc23)NC(=O)[C@@H](NC(=O)[C@@H](NC(=O)[C@H](Cc2ccccc2)NC(=O)[C@H](CC(=O)O)NC(=O)[C@H](CCC(N)=O)NC(=O)[C@H](C)NC(=O)[C@H](C)NC(=O)[C@H](CCCNC(=N)N)NC(=O)C(C)(C)NC(=O)[C@H](CC(=O)O)NC(=O)[C@H](CC(C)C)NC(=O)[C@H](Cc2ccc(O)cc2)NC(=O)[C@H](CCCCN)NC(=O)[C@H](CO)NC(=O)[C@H](CCCCN)NC(=O)[C@H](CC(=O)O)NC(=O)[C@H](CO)NC(=O)[C@@H](NC(=O)[C@H](Cc2ccccc2)NC(=O)[C@@H](NC(=O)CNC(=O)[C@H](CCC(N)=O)NC(=O)C(C)(C)NC(=O)[C@@H](N)Cc2c[nH]cn2)[C@@H](C)O)[C@@H](C)O)C(C)C)CCCC=CCCC[C@@H](C(=O)N[C@H](C(=O)N[C@@H](CCCCN)C(=O)N[C@@H](CCC(N)=O)C(=O)O)[C@@H](C)O)NC(=O)[C@H](CC(C)C)NC1=O [compound 18] (H-H[Aib]QGTFTSDKSKYLD[Aib]RAAQDFV[Nle(6-ylidene)]WLL[Nle(6-ylidene)]TKQ-OH; staple 24-28)
